Columns and labels:
Daphnia pulex = test: Incubation of Daphnia pulex with samples in FLAMES medium, evaluation of potential toxicity; format: in vivo
Source text: The impressive robustness and fading-free properties of the Dyes@BNNT are appealing for bio-imaging applications. FIG. 4 presents an example of the use of nanohybrids to make optical nanoprobes for imaging living Daphnia pulex microorganisms in water—see bright-field image in FIG. 4a #1. Daphnia (also called water fleas) are common planktonic crustaceans, which find use as chemical sensors in ecotoxicology studies, thanks to their high sensitivity to water quality. To acquire the bio-images (FIG. 4a #2-5), we first solubilized the Dyes@BNNTs in a water-based living medium called FLAMES, using a poly (ethylene) glycol derivative (mPEG-DSPE) (Supplementary Section 2.9). […] Living daphniids were imaged under a fluorescence microscope equipped with UBG filter and a 10× objective. […] This natural blue-green signal originates from the auto-fluorescence of the tissues in FLAMES through the UBG filter, which disappears after death or after few minutes only of photobleaching. […]
Before any experiment, many adult individuals of Daphnia pulex (clones DISP 1312) were kept at 22° C. in FLAMES with algae for 4 days, allowing a new reproducing cycle. Then, the specimens were transferred to a FLAMES medium algae-free and maintained this condition for at least 1 day to clean the digestive system and limit the fluorescence from the algae themselves during the images/time lapse acquisition—FIG. 8. […]

[1] = Chemical stability on Si/SiO2: oxygen plasma, thermal annealing, piranha; format: physicochemical; conditions: oxygen plasma of 100 W for 10 minutes
Procedure: The chemical stability of the nanohybrids is tested using individualized 6T@BNNT bundles on Si/SiO2 exposed to an oxygen plasma of 100 W for 10 minutes. […] The enhanced stability of the encapsulated dyes has also been observed upon thermal annealing up to 350° C. in air and using piranha solutions (not shown). […] The chemical and physical stability experiments have been repeated on a number of Dyes@BNNT nanohybrids of different lengths deposited on substrates or dispersed in a solution (See e.g. Supplementary Figs. 10 and 11). All of the results lead us to the same conclusion, which underlines the tremendous gain in stability inferred by the confinement of the 1D cavity of BNNTs.

HuH6 cells = test: Two-photon photobleaching test and excitation profile in fixed HuH6 cells; parameters: species or system human; conditions: λex=860 nm, 30 mins, 400 Hz, laser output power 2.55 W
Procedure: To further assess a possible toxicity of the Dyes@BNNT, we performed an additional set of experiments at the scale of a cell. We incubated 10 μg·mL^−1 of a PEG-6T@BNNT solution for 24 hours with human hepatoblastoma HuH6 cells, which is one of the model cell lines used for toxicology studies. […] FIGS. 5a and 5c show fluorescence spectra consistent with DiA (green) and PEG-6T@BNNT (red) separated in the regions 2 and 1, respectively. […] The fluorescence of both the DiA and PEG-6T@BNNT, as a function of the excitation wavelength between 740 nm and 1020 nm, is shown in FIG. 5d. The resonance maximum of DiA is measured at 880 nm, which is distinct from the resonance of the PEG-6T@BNNT located at ˜740 nm, a position similar to that of functionalized polythiophene. […] To directly compare exposed and non-exposed cells, FIG. 5b presents a two-photon hyperspectral fluorescence image taken in a field of view slightly larger than the photobleaching test area. […]
3.2 Characterization by Raman and Photoluminescence. […] The equipment of the different setups is summarized in Table S2 and are described as follows: • The Luminescence images and photobleaching experiments, as presented in FIG. 3, main text, were performed at λex=532 nm using the Raman/PL mapping system RIMA™ (Photon etc.). […]

Row | SMILES | state of daphniids after first incubation test (Daphnia pulex; free 6T in FLAMES, incubation time of only few minutes) | time after which individuals died (Daphnia pulex; group B, incubated directly with 6T at 100 ug/mL) | change in PL after oxygen plasma [1] | fluorescence after two-photon photobleaching test (HuH6 cells)
1 | c1csc(-c2ccc(-c3ccc(-c4ccc(-c5ccc(-c6cccs6)s5)s4)s3)s2)c1 [6T, α-sexithiophene] | found dead | 20 h | completely vanished | –
2 | CCCCC/C=C\C/C=C\CCCCCCCCN(CCCCCCCC/C=C\C/C=C\CCCCC)c1ccc(C=Cc2cc[n+](C)cc2)cc1.O=S(=O)([O-])c1ccc(Cl)cc1 [DiA] | – | – | – | significantly photo-bleached

— patent US11982676B2, “Near-infrared fluorescent nanoprobe” (VALORISATION-RECHERCHE, LIMITED PARTNERSHIP, priority 2021, dated 2024)
